From patent EP3722296B1, “DIHYDRONAPHTHYRIDINES AND RELATED COMPOUNDS USEFUL AS KINASE INHIBITORS FOR THE TREATMENT OF PROLIFERATIVE DISEASES” (Deciphera Pharmaceuticals, LLC, priority 2012, dated 2013) come the findings set out here.

The subject of test [1] is Phospho-KIT (Tyr719). The experiment in a line: GIST48 KIT Western Blot. Conditions: GIST48 cells, 4 hours, serum-free medium; read-out: pKIT suppression by western blot analysi GIST48. The class given is cell-based. The gist of the method:
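Phospho-KIT (Tyr719) was immunoblotted on PVDF and imaged in fluorescence mode after ECL Plus, with stripping and reprobing for total KIT. IC50 values were derived from the blot signals.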

Test [2] addresses T1, c-KIT V654A kinase (Homo sapiens, UniProt P10721, V654A).
T1 construct: residues T544-V976 with N-terminal GST fusion; purchased deCODE Biostructures
The experiment in a line: c-KIT V654A Kinase Assay. Type of test: biochemical. Conditions: enzymatic assay, ATP 200 µM. In short, it runs like this: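 Kinase activity tracked by coupled NADH consumption, monitored continuously at 340 nm over 6 h at 30 °C after serially diluted compound was mixed in to start inhibition. Enzyme used was a GST-fused, N-terminally tagged cKIT T544–V976 construct with a TEV cleavage site.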

For test [3], the target named is c-KIT kinase (Homo sapiens, UniProt P10721). The experiment in a line: c-KIT kinase Assay. Type of test: biochemical. Also on record: cKIT residues T544-V976; GST (N); TEV cleavage site (internal); purchased deCODE Biostructures. Conditions: enzymatic assay, ATP 200 µM; read-out: KIT (wt) IC50. In short, it runs like this: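 This continuous spectrophotometric assay tracked c-KIT kinase turnover through NADH consumption at 340 nm, recorded for 2 hours at 30 °C. The enzyme construct from deCODE Biostructures carried an N-terminal tag, a GST-fusion sequence and a TEV cleavage site. Percent inhibition came from reaction rates over 0 to 1 h relative to a no-compound control, and IC50 values were derived with GraphPad Prism.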

Test [4] addresses T2, c-KIT D816H kinase (Homo sapiens, UniProt P10721, D816H).
T2 construct: The construct contains residues T544-V976 of cKit; GST (N); TEV cleavage site (internal); purchased deCODE Biostructures
The experiment in a line: c-KIT D816H Kinase Assay. Type of test: biochemical. Conditions: enzymatic assay, ATP 200 µM. The gist of the method: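 Mutant cKit enzyme, expressed as a GST-fusion construct carrying an N-terminal tag and TEV site, was mixed with serially diluted compound to start reactions. Activity tracked via NADH consumption, read continuously at 340 nm over 6 hours at 30 °C.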

For test [5], the target named is T3, c-KIT T670I kinase (Homo sapiens, UniProt P10721, T670I).
T3 construct: The construct contains residues T544-V976 of cKit; GST (N); TEV cleavage site (internal); purchased deCODE Biostructures
The experiment in a line: c-KIT T670I kinase assay. The class given is biochemical. The settings on record: enzymatic assay. In short, it runs like this: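 Enzyme: GST-fused, N-terminally tagged cKit bearing T670I, with TEV cleavage site. Reaction started by mixing compound dilutions with reaction mix; activity read continuously over 5 h at 30 °C as loss of 340 nm absorbance from NADH consumption.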

Each structure is given as a SMILES string. A value given as a limit tells only on which side of the number the result lay.

Chain of c-KIT kinase (P10721 544-976): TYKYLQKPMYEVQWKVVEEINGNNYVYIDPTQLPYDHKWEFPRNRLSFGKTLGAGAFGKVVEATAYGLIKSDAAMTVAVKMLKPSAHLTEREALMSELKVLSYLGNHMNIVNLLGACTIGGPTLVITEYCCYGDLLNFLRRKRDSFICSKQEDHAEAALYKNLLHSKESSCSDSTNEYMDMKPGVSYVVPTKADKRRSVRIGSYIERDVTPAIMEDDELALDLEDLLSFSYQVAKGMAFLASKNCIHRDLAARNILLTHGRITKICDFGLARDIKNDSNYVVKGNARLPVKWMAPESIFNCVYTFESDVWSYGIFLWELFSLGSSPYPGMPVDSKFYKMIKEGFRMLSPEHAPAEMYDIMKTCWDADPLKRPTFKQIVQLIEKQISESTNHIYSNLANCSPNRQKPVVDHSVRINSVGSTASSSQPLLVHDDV
T1 sequence (P10721 544-976 V654A): as the sequence (P10721 544-976) above, with V111A counted along it
T2 sequence (P10721 544-976 D816H): as the sequence (P10721 544-976) above, with D273H counted along it
T3 sequence (P10721 544-976 T670I): as the sequence (P10721 544-976) above, with T127I counted along it

Consider `CCn1c(=O)c(-c2cc(NC(=O)Nc3cc(F)cc(F)c3)c(F)cc2Cl)cc2cnc(NC)cc21` [Example 55, 1-(4-chloro-5-(1-ethyl-7-(methylamino)-2-oxo-1,2-dihydro-1,6-naphthyridin-3-yl)-2-fluorophenyl)-3-(3,5-difluorophenyl)urea], for which the IC50 in test [1] was above 1000 nM; in test [2], 10 to 100 nM; in test [3], 10 to 100 nM; in test [4], below 10 nM; in test [5] it was 10 to 100 nM.
As to `CCn1c(=O)c(-c2cc(NC(=O)Nc3ccccc3)c(F)cc2Br)cc2cnc(N)cc21` [Example 57, 1-(5-(7-amino-1-ethyl-2-oxo-1,2-dihydro-1,6-naphthyridin-3-yl)-4-bromo-2-fluorophenyl)-3-phenylurea], the IC50 was 100 to 1000 nM in test [1]; 10 to 100 nM in test [2]; below 10 nM in test [3]; 10 to 100 nM in test [4]; below 10 nM in test [5].
On to `CCn1c(=O)c(-c2cc(NC(=O)Nc3cccc(F)c3)c(F)cc2C)cc2cnc(N)cc21` [Example 58, 1-(5-(7-amino-1-ethyl-2-oxo-1,2-dihydro-1,6-naphthyridin-3-yl)-2-fluoro-4-methylphenyl)-3-(3-fluorophenyl)urea], for which the IC50 in test [1] was 100 to 1000 nM; in test [2], below 10 nM; in test [3] it was below 10 nM; in test [4], below 10 nM; in test [5] it was 10 to 100 nM.
Consider `CCn1c(=O)c(-c2cc(NC(=O)Nc3csc4ccccc34)c(F)cc2C)cc2cnc(NC)cc21` [Example 59, 1-(benzo[b]thiophen-3-yl)-3-(5-(1-ethyl-7-(methylamino)-2-oxo-1,2-dihydro-1,6-naphthyridin-3-yl)-2-fluoro-4-methylphenyl)urea], for which the IC50 in test [1], in test [2], in test [3], in test [4] and in test [5] was 10 to 100 nM throughout.
On to `CCn1c(=O)c(-c2cc(NC(=O)Nc3cc(F)cc(F)c3)c(F)cc2C)cc2cnc(NC)cc21` [Example 60, 1-(3,5-difluorophenyl)-3-(5-(1-ethyl-7-(methylamino)-2-oxo-1,2-dihydro-1,6-naphthyridin-3-yl)-2-fluoro-4-methylphenyl)urea], for which the IC50 was above 1000 nM in test [1]; 10 to 100 nM in test [2]; below 10 nM in test [3]; 10 to 100 nM in test [4]; 100 to 1000 nM in test [5].
Consider `CCn1c(=O)c(-c2cc(NC(=O)Nc3cc(F)ccc3F)c(F)cc2C)cc2cnc(NC)cc21` [Example 61, 1-(2,5-difluorophenyl)-3-(5-(1-ethyl-7-(methylamino)-2-oxo-1,2-dihydro-1,6-naphthyridin-3-yl)-2-fluoro-4-methylphenyl)urea], for which the IC50 in test [1] is above 1000 nM; in test [2], 10 to 100 nM; in test [3], below 10 nM; in test [4], 100 to 1000 nM; in test [5], below 10 nM.
Take `CCn1c(=O)c(-c2cc(NC(=O)Nc3cc(F)cc(F)c3)c(F)cc2Cl)cc2cnc(NC(C)=O)cc21` [Example 67, N-(3-(2-chloro-5-(3-(3,5-difluorophenyl)ureido)-4-fluorophenyl)-1-ethyl-2-oxo-1,2-dihydro-1,6-naphthyridin-7-yl)acetamide]: the IC50 in test [1] is below 10 nM; in test [2] it was 10 to 100 nM; in test [3] it was 10 to 100 nM; in test [4] it was below 10 nM; in test [5], below 10 nM.
In the case of `CCn1c(=O)c(-c2cc(NC(=O)Nc3ccccc3)c(F)cc2Cl)cc2cnc(NC(=O)N(C)C)cc21` [Example 70, 3-(3-(2-chloro-4-fluoro-5-(3-phenylureido)phenyl)-1-ethyl-2-oxo-1,2-dihydro-1,6-naphthyridin-7-yl)-1,1-dimethylurea], the IC50 in test [1] is 10 to 100 nM; in test [2] it was 10 to 100 nM; in test [3] it was below 10 nM; in test [4], 10 to 100 nM; in test [5], below 10 nM.
